Measurements reported in PubChem BioAssay (NCI).
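Grown in 96-well plates, cells were treated for 48 hours with each compound at five concentrations. Insufficient inhibition: endpoint recorded as highest concentration tested. Abbreviation: GI50, concentration required for 50% inhibition of growth. TGI is the concentration that stops growth completely.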

Columns and labels:
Test in all cases: growth of human tumour cells (NCI), 48 h
SF-295 CNS = test system: SF-295 CNS
K-562 leukemia = test system: K-562 leukemia
LOX IMVI melanoma = test system: LOX IMVI melanoma
OVCAR-4 ovarian = test system: OVCAR-4 ovarian
SF-268 CNS = test system: SF-268 CNS
MOLT-4 leukemia = test system: MOLT-4 leukemia
EKVX NSCLC = test system: EKVX NSCLC
NCI-H23 lung = test system: NCI-H23 lung
BT-549 breast = test system: BT-549 breast
SK-OV-3 ovarian = test system: SK-OV-3 ovarian

Row | Compound | GI50 (SF-295 CNS) [µM] | TGI (SF-295 CNS) [µM] | GI50 (K-562 leukemia) [µM] | TGI (K-562 leukemia) [µM] | GI50 (LOX IMVI melanoma) [µM] | TGI (LOX IMVI melanoma) [µM] | GI50 (OVCAR-4 ovarian) [µM] | TGI (OVCAR-4 ovarian) [µM] | GI50 (SF-268 CNS) [µM] | TGI (SF-268 CNS) [µM] | GI50 (MOLT-4 leukemia) [µM] | GI50 (EKVX NSCLC) [µM] | TGI (EKVX NSCLC) [µM] | GI50 (NCI-H23 lung) [µM] | TGI (NCI-H23 lung) [µM] | GI50 (BT-549 breast) [µM] | TGI (BT-549 breast) [µM] | GI50 (SK-OV-3 ovarian) [µM] | TGI (SK-OV-3 ovarian) [µM] | TGI (MOLT-4 leukemia) [µM]
1 | COc1cc2c(c(OC)c1OC)-c1ccc(O)cc1[C@@H](NC(C)=O)CC2 | 0.0341 | > 100 | 0.0376 | > 100 | 0.0803 | > 100 | 0.0706 | > 100 | 0.0641 | > 29.1 | 0.0578 | 0.0577 | > 100 | 0.0544 | > 100 | 0.152 | > 100 | 0.0377 | > 100 | 
2 | NCCc1ccc(S(=O)(=O)F)cc1 | 64.5 | > 100 | 80.7 | > 100 | 51.1 | > 100 | > 100 | > 100 | > 100 | > 100 | 32.2 | 43.3 | > 100 | > 100 | > 100 | 27.9 | > 100 | > 100 | > 100 | > 100
3 | O=C1/C=C/[C@@H](O)[C@@H]2C[C@@H](O)C[C@H]2/C=C/CCC[C@H](CCc2cccc3ccccc23)O1 | 0.0388 | 10.1 | 0.368 | 14.4 | 0.0323 | 0.11 | 0.0525 | 3.82 | 0.0365 | 12.3 | 0.105 | 0.0816 | 14 | 0.0637 | 1.9 | 0.0609 | 12.1 | 0.064 | 12 | 2.61
4 | C=C(CN1CCN(c2ccc(C(F)(F)F)cc2)CC1)c1ccc(C(=O)Nc2ccccc2N)cc1 | 10.8 | > 100 | 0.302 | > 36.5 | 11.1 | > 100 | 5.68 | > 100 | 6.78 | > 100 | 0.153 | 12.3 | > 100 | 9.49 | > 100 | 6.93 | 97.8 | 12.1 | > 100 | 1.06
5 | C=C1CC2(CC(c3ccccc3Cl)OC(c3ccccc3Cl)C2)OC1=O (stereo unspecified) |  | 19.2 |  | > 25.3 |  | 2.72 |  | 8.56 |  | 5.62 |  |  | 15.2 |  | 9.03 |  | 4.59 |  | 16.9 | 6.19
6 | O=C(O)[C@H](Cc1c[nH]c2ccccc12)N1C(=O)c2ccccc2C1=O |  | > 100 | > 100 | > 100 |  | > 100 |  | > 100 |  | > 100 | > 100 |  | > 100 |  | > 100 |  | > 100 |  | > 100 | > 100
7 | CC/C=C\C[C@H](F)C/C=C1/C(=O)C=C[C@@H]1C/C=C\CCCC(=O)OC | 2.24 | 8.3 | 1.49 | 6.19 | 0.854 | 1.75 | 3.35 | 10.1 | 1.86 | 7.23 | 1.45 | 5.17 | 12 | 2.16 | 10.9 | 1.5 | 4.15 | 10.5 | 32.1 | 5.27
